Residues, ends and D or L forms follow the SMILES beside them.
Assay: WR peptide solubility (supernatant to pellet ratio after centrifugation)
Assay type: physicochemical
Details: 0.1 and 0.2 mg/mL
Method: FIGS. 7A-7H provide data and illustrations related to the fibrillation propensities of NANOG WR-derived peptides. FIG. 7A illustrates NANOG domain organization and the human and mouse NANOG WR-derived peptides used in Example 2. […] Right panels show aggregation kinetics for peptides 1-3 w (top) and 1-4 w (bottom) after 1 min equilibration. Similar results were obtained from two independent experiments. […] Similar results were obtained from two independent experiments. […] Similar results were obtained from two independent experiments. […] Similar results were obtained from two independent preparations. […]
(§1) Amino acids of the synthesized peptides were classified into aromatic, polar, charged and structure breakers (FIG. 7B). Applicant observed a striking degree of correlation between amino acid type distribution, and the peptide's solubilities and aggregation propensities, as monitored by Thioflavin T (ThT, amyloid binding dye) aggregation kinetics assay (FIGS. 7B-7D). Formation of β-sheet fibrils were confirmed by CD spectroscopy and Transmission Electron Microscopy. Hydrophobic/aromatic residues as well as polar residues such as Gln and Asn are commonly found in amyloid or prion-like domains. On the other hand, charged and ‘structure breaker’ residues such as Gly and Pro contribute to the peptide's higher solubility. […] Aggregation kinetics was rapid; 1-4w reached maximal ThT fluorescence within 2-3 min and 1-3w ˜20 min (FIG. 7D).

| Compound | peptide solubility |
| --- | --- |
| CC[C@H](C)[C@H](NC(=O)[C@H](CC(N)=O)NC(=O)[C@H](CCC(N)=O)NC(=O)[C@@H](NC(=O)[C@H](CCC(N)=O)NC(=O)[C@H](CC(N)=O)NC(=O)[C@H](CO)NC(=O)[C@H](C)NC(=O)[C@@H](NC(=O)[C@H](CO)NC(=O)[C@H](CC(N)=O)NC(=O)[C@H](CC(N)=O)NC(=O)[C@H](C)NC(=O)[C@@H](NC(=O)[C@H](CCC(N)=O)NC(=O)[C@H](CC(N)=O)NC(=O)[C@H](CO)NC(=O)[C@H](C)N)[C@@H](C)O)[C@@H](C)O)[C@@H](C)O)C(=O)N[C@@H](CCC(N)=O)C(=O)N[C@@H](CO)C(=O)N[C@@H](Cc1c[nH]c2ccccc12)C(=O)N[C@@H](CO)C(=O)N[C@@H](CC(N)=O)C(=O)N[C@@H](Cc1c[nH]cn1)C(=O)N[C@@H](CO)C(=O)N[C@@H](CCCCN)C(=O)O [1-4wa] (H-ASNQTANNSTASNQTQNIQSWSNHSK-OH; N-terminus and C-terminus assumed) | increased solubility |
| C[C@@H](O)[C@H](NC(=O)[C@H](CCC(N)=O)NC(=O)[C@H](CC(N)=O)NC(=O)[C@H](CO)NC(=O)[C@@H](N)Cc1c[nH]c2ccccc12)C(=O)N[C@@H](CCCCN)C(=O)O [1w, WSNQTK] (H-WSNQTK-OH; N-terminus and C-terminus assumed) | very soluble |
| C[C@@H](O)[C@H](NC(=O)[C@H](CCC(N)=O)NC(=O)[C@H](CC(N)=O)NC(=O)[C@H](CO)NC(=O)[C@H](Cc1c[nH]c2ccccc12)NC(=O)[C@@H](NC(=O)[C@H](CO)NC(=O)[C@H](CC(N)=O)NC(=O)[C@H](CC(N)=O)NC(=O)[C@H](Cc1c[nH]c2ccccc12)NC(=O)[C@@H](NC(=O)[C@H](CCC(N)=O)NC(=O)[C@H](CC(N)=O)NC(=O)[C@H](CO)NC(=O)[C@@H](N)Cc1c[nH]c2ccccc12)[C@@H](C)O)[C@@H](C)O)C(=O)N[C@@H](CCCNC(=N)N)C(=O)N[C@@H](CCCNC(=N)N)C(=O)N[C@@H](CCCNC(=N)N)C(=O)N[C@@H](CCCNC(=N)N)C(=O)N[C@@H](CCCNC(=N)N)C(=O)N[C@@H](CCCNC(=N)N)C(=O)N[C@@H](CCCCN)C(=O)N[C@@H](CCCCN)C(=O)N[C@@H](CS)C(=O)O [1-3wRRK] (H-WSNQTWNNSTWSNQTRRRRRRKKC-OH; N-terminus and C-terminus assumed) | very soluble |
| WNTQTWCTQSWNNQAWNSPFYNCGEESK [5-8w, human C-terminal WR repeats] | relatively higher solubility |
| C[C@@H](O)[C@H](NC(=O)[C@H](CCC(N)=O)NC(=O)[C@H](CC(N)=O)NC(=O)[C@H](CO)NC(=O)[C@H](Cc1c[nH]c2ccccc12)NC(=O)[C@@H](NC(=O)[C@H](CO)NC(=O)[C@H](CC(N)=O)NC(=O)[C@H](CC(N)=O)NC(=O)[C@H](Cc1c[nH]c2ccccc12)NC(=O)[C@@H](NC(=O)[C@H](CCC(N)=O)NC(=O)[C@H](CC(N)=O)NC(=O)[C@H](CO)NC(=O)[C@@H](N)Cc1c[nH]c2ccccc12)[C@@H](C)O)[C@@H](C)O)C(=O)N[C@@H](CCCCN)C(=O)O [1-3w] (H-WSNQTWNNSTWSNQTK-OH; N-terminus and C-terminus assumed) | more insoluble |
| CC[C@H](C)[C@H](NC(=O)[C@H](CC(N)=O)NC(=O)[C@H](CCC(N)=O)NC(=O)[C@@H](NC(=O)[C@H](CCC(N)=O)NC(=O)[C@H](CC(N)=O)NC(=O)[C@H](CO)NC(=O)[C@H](Cc1c[nH]c2ccccc12)NC(=O)[C@@H](NC(=O)[C@H](CO)NC(=O)[C@H](CC(N)=O)NC(=O)[C@H](CC(N)=O)NC(=O)[C@H](Cc1c[nH]c2ccccc12)NC(=O)[C@@H](NC(=O)[C@H](CCC(N)=O)NC(=O)[C@H](CC(N)=O)NC(=O)[C@H](CO)NC(=O)[C@@H](N)Cc1c[nH]c2ccccc12)[C@@H](C)O)[C@@H](C)O)[C@@H](C)O)C(=O)N[C@@H](CCC(N)=O)C(=O)N[C@@H](CO)C(=O)N[C@@H](Cc1c[nH]c2ccccc12)C(=O)N[C@@H](CO)C(=O)N[C@@H](CC(N)=O)C(=O)N[C@@H](Cc1c[nH]cn1)C(=O)N[C@@H](CO)C(=O)N[C@@H](CCCCN)C(=O)O [1-4w] (H-WSNQTWNNSTWSNQTQNIQSWSNHSK-OH; N-terminus and C-terminus assumed) | more insoluble |
| WCTQSWNNQAWNSPFYNCGEESK [6-8w, human C-terminal WR repeats] | relatively higher solubility |
| C[C@@H](O)[C@H](NC(=O)[C@H](CCC(N)=O)NC(=O)[C@H](CC(N)=O)NC(=O)[C@H](CC(N)=O)NC(=O)[C@H](Cc1c[nH]c2ccccc12)NC(=O)[C@@H](NC(=O)[C@@H]1CCCN1C(=O)[C@H](CC(N)=O)NC(=O)[C@@H](NC(=O)[C@H](Cc1c[nH]c2ccccc12)NC(=O)[C@@H](NC(=O)[C@H](CCC(N)=O)NC(=O)[C@H](CO)NC(=O)[C@H](CO)NC(=O)[C@H](Cc1c[nH]c2ccccc12)NC(=O)[C@@H](NC(=O)[C@@H]1CCCN1C(=O)[C@H](CC(N)=O)NC(=O)[C@@H](NC(=O)[C@H](Cc1c[nH]c2ccccc12)NC(=O)[C@@H](NC(=O)[C@H](CCC(N)=O)NC(=O)[C@H](CO)NC(=O)CNC(=O)[C@@H](N)Cc1c[nH]c2ccccc12)[C@@H](C)O)[C@@H](C)O)[C@@H](C)O)[C@@H](C)O)[C@@H](C)O)[C@@H](C)O)C(=O)N[C@@H](CCCCN)C(=O)O [m1-5w] (H-WGSQTWTNPTWSSQTWTNPTWNNQTK-OH; N-terminus and C-terminus assumed) | relatively higher solubility |
| C[C@H](NC(=O)[C@H](CCC(N)=O)NC(=O)[C@H](CO)NC(=O)[C@H](CO)NC(=O)[C@H](Cc1c[nH]c2ccccc12)NC(=O)[C@@H](NC(=O)[C@@H]1CCCN1C(=O)[C@H](CC(N)=O)NC(=O)[C@@H](NC(=O)[C@@H](N)Cc1c[nH]c2ccccc12)[C@@H](C)O)[C@@H](C)O)C(=O)N[C@@H](Cc1c[nH]c2ccccc12)C(=O)N[C@H](C(=O)N[C@@H](C)C(=O)N[C@@H](CCC(N)=O)C(=O)N[C@@H](CO)C(=O)N[C@@H](Cc1c[nH]c2ccccc12)C(=O)N[C@@H](CC(N)=O)C(=O)NCC(=O)N[C@@H](CCC(N)=O)C(=O)N1CCC[C@H]1C(=O)N[C@@H](Cc1c[nH]c2ccccc12)C(=O)N[C@@H](CC(N)=O)C(=O)N[C@@H](C)C(=O)N[C@@H](C)C(=O)N1CCC[C@H]1C(=O)N[C@@H](CCCCN)C(=O)O)[C@@H](C)O [m6-10w] (H-WTNPTWSSQAWTAQSWNGQPWNAAPK-OH; N-terminus and C-terminus assumed) | relatively higher solubility |
| C[C@@H](O)[C@H](NC(=O)[C@H](CO)NC(=O)[C@H](CC(N)=O)NC(=O)[C@H](CC(N)=O)NC(=O)[C@H](Cc1c[nH]c2ccccc12)NC(=O)[C@@H](NC(=O)[C@H](CCC(N)=O)NC(=O)[C@H](CC(N)=O)NC(=O)[C@H](CO)NC(=O)[C@@H](N)Cc1c[nH]c2ccccc12)[C@@H](C)O)C(=O)N[C@@H](CCCCN)C(=O)O [1-2w] (H-WSNQTWNNSTK-OH; N-terminus and C-terminus assumed) | very soluble |

Assay: WR peptide aggregation kinetics by ThT fluorescence
Assay type: physicochemical
Details: not given
Method: FIGS. 7A-7H provide data and illustrations related to the fibrillation propensities of NANOG WR-derived peptides. FIG. 7A illustrates NANOG domain organization and the human and mouse NANOG WR-derived peptides used in Example 2. […] Right panels show aggregation kinetics for peptides 1-3 w (top) and 1-4 w (bottom) after 1 min equilibration. Similar results were obtained from two independent experiments. […] Similar results were obtained from two independent experiments. […] Similar results were obtained from two independent experiments. […] Similar results were obtained from two independent preparations.
as §1, with “domains.” for “domains. On the other hand, charged and ‘structure breaker’ residues such as Gly and Pro contribute to the peptide's higher solubility.”

| Compound | aggregation kinetics |
| --- | --- |
| WNTQTWCTQSWNNQAWNSPFYNCGEESK [5-8w, human C-terminal WR repeats] | slower aggregation kinetics |
| WCTQSWNNQAWNSPFYNCGEESK [6-8w, human C-terminal WR repeats] | slower aggregation kinetics |

Source: patent US20240383953A1, “NOVEL NAN[…] NANOG PRION-LIKE REPEATS” (BAYLOR COLLEGE OF MEDICINE, priority 2021, published 2024)
